How the values were obtained:
[1] = target: T1, CD73 (Homo sapiens (Human), UniProt P21589); format: biochemical; conditions: 1 mM NaH2PO4 in enzyme buffer, CD73 0.3 nM, AMP 15 uM
[2] = target: T1, CD73; assay: MDA-MB-231 Cell Based CD73 Activity Assay (DMEM); conditions: MDA-MB-231-GFP cells, DMEM medium with 10% human plasma, 200 uM AMP

T1 sequence (P21589 27-574): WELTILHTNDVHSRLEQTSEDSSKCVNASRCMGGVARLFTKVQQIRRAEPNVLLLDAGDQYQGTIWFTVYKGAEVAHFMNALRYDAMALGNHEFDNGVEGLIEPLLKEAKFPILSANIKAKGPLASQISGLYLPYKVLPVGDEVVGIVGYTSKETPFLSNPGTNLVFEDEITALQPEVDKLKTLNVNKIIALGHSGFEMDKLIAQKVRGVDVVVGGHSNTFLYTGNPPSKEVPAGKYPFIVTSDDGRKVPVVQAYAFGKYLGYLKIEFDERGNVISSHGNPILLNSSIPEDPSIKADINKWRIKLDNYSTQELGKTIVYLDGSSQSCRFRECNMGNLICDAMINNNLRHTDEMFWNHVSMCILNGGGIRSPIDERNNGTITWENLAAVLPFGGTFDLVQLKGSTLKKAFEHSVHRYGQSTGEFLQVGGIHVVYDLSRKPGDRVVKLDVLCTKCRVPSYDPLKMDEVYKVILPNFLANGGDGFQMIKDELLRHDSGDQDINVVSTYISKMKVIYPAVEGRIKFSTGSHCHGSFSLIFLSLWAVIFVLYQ

SMILES	IC50 [1]	EC50 [2]
Cc1cc([C@H]2C[C@@H]2c2cc(-c3c[nH]c(=O)[nH]c3=O)nn3ccnc23)cc(F)c1C#N [Example 567, 4-((1S,2S)-2-(6-(2,4-dioxo-1,2,3,4-tetrahydropyrimidin-5-yl)imidazo[1,2-b]pyridazin-8-yl)cyclopropyl)-2-fluoro-6-methylbenzonitrile]	1.73 nM	7.93 nM
O=c1[nH]cc(-c2cc([C@H]3C[C@@H]3c3cnc4cnn(CC(F)(F)F)c4c3)c3ncc(F)n3n2)c(=O)[nH]1 (racemic) [Example 619, 5-(3-fluoro-8-((1S,2S)-2-(1-(2,2,2-trifluoroethyl)-1H-pyrazolo[4,3-b]pyridin-6-yl)cyclopropyl)imidazo[1,2-b]pyridazin-6-yl)pyrimidine-2,4(1H,3H)-dione]	0.95 nM	0.14 nM
C[C@H](COc1cc(-c2c[nH]c(=O)[nH]c2=O)nn2ccnc12)c1ccccc1 [Example 691, (S)-5-(8-(2-phenylpropoxy)imidazo[1,2-b]pyridazin-6-yl)pyrimidine-2,4(1H,3H)-dione]	43.3 nM	349 nM
O=c1[nH]cc(-c2cc(OCC(F)(F)c3ccccc3)c3nccn3n2)c(=O)[nH]1 [Example 682, 5-(8-(2,2-difluoro-2-phenylethoxy)imidazo[1,2-b]pyridazin-6-yl)pyrimidine-2,4(1H,3H)-dione]	1.59 nM	17.9 nM
O=c1[nH]cc(-c2cc(N3CC(F)(F)C(F)(F)C3)c3ncc(F)n3n2)c(=O)[nH]1 [Example 351, 5-(3-fluoro-8-(3,3,4,4-tetrafluoropyrrolidin-1-yl)imidazo[1,2-b]pyridazin-6-yl)pyrimidine-2,4(1H,3H)-dione]	10.6 nM	56.4 nM
O=c1[nH]cc(-c2cc(N3CC4CC(C4)C3)c3nccn3n2)c(=O)[nH]1 [Example 650, 5-(8-(3-azabicyclo[3.1.1]heptan-3-yl)imidazo[1,2-b]pyridazin-6-yl)pyrimidine-2,4(1H,3H)-dione]	6.86 nM	18.8 nM
O=c1[nH]cc(-c2cc(N3CC(c4ccc(F)cc4)C3)c3nccn3n2)c(=O)[nH]1 [Example 258, 5-(8-(3-(4-fluorophenyl)azetidin-1-yl)imidazo[1,2-b]pyridazin-6-yl)pyrimidine-2,4(1H,3H)-dione]	52.4 nM	106 nM
N#Cc1ccc(O[C@@H]2CN(c3cc(-c4c[nH]c(=O)[nH]c4=O)nn4ccnc34)CC2(F)F)nc1 [Example 338, (R)-6-((1-(6-(2,4-dioxo-1,2,3,4-tetrahydropyrimidin-5-yl)imidazo[1,2-b]pyridazin-8-yl)-4,4-difluoropyrrolidin-3-yl)oxy)nicotinonitrile]	10.9 nM	72.8 nM
O=c1[nH]cc(-c2cc(NC[C@@H](F)c3ccccc3)c3nccn3n2)c(=O)[nH]1 [Example 494, (S)-5-(8-((2-fluoro-2-phenylethyl)amino)imidazo[1,2-b]pyridazin-6-yl)pyrimidine-2,4(1H,3H)-dione]	102 nM	291 nM
O=C(NCC(F)(F)F)OC1CN(c2cc(-c3c[nH]c(=O)[nH]c3=O)nn3ccnc23)CC1(F)F (centres unmarked) [Example 535, 1-(6-(2,4-dioxo-1,2,3,4-tetrahydropyrimidin-5-yl)imidazo[1,2-b]pyridazin-8-yl)-4,4-difluoropyrrolidin-3-yl (2,2,2-trifluoroethyl)carbamate]	1.63 nM	0.71 nM
Cn1ccnc1C(F)(F)COc1cc(-c2c[nH]c(=O)[nH]c2=O)nn2ccnc12 [Example 693, 5-(8-(2,2-difluoro-2-(1-methyl-1H-imidazol-2-yl)ethoxy)imidazo[1,2-b]pyridazin-6-yl)pyrimidine-2,4(1H,3H)-dione]	9.78 nM	49.4 nM
O=c1[nH]cc(-c2cc(N3CCC4CCC43)c3nccn3n2)c(=O)[nH]1 (centres unmarked) [Example 257, 5-(8-(2-azabicyclo[3.2.0]heptan-2-yl)imidazo[1,2-b]pyridazin-6-yl)pyrimidine-2,4(1H,3H)-dione]	51.7 nM	103 nM
O=c1[nH]cc(-c2cc([C@H]3C[C@@H]3c3ncc(Cl)cc3F)c3nccn3n2)c(=O)[nH]1 [Example 586, 5-(8-((1S,2S)-2-(5-chloro-3-fluoropyridin-2-yl)cyclopropyl)imidazo[1,2-b]pyridazin-6-yl)pyrimidine-2,4(1H,3H)-dione]	0.85 nM	2.94 nM
CCOC(=O)OC1CN(c2cc(-c3c[nH]c(=O)[nH]c3=O)nn3ccnc23)CC1(F)F (centres unmarked) [Example 525, 1-(6-(2,4-dioxo-1,2,3,4-tetrahydropyrimidin-5-yl)imidazo[1,2-b]pyridazin-8-yl)-4,4-difluoropyrrolidin-3-yl ethyl carbonate]	1.54 nM	4.43 nM
O=c1[nH]cc(-c2cc([C@H]3C[C@@H]3c3ccc(C(F)(F)F)cc3)c3ncnn3n2)c(=O)[nH]1 [Example 427, 5-(8-((1S,2S)-2-(4-(trifluoromethyl)phenyl)cyclopropyl)-[1,2,4]triazolo[1,5-b]pyridazin-6-yl)pyrimidine-2,4(1H,3H)-dione]	0.48 nM	7.4 nM
O=c1[nH]cc(-c2cc(N3CC(C(F)F)C3)c3nccn3n2)c(=O)[nH]1 [Example 403, 5-(8-(3-(difluoromethyl)azetidin-1-yl)imidazo[1,2-b]pyridazin-6-yl)pyrimidine-2,4(1H,3H)-dione]	8.94 nM	28.5 nM
O=c1[nH]cc(-c2cc([C@H]3C[C@@H]3c3ccc4c(C(F)(F)F)nn(CC(F)(F)F)c4c3)c3nccn3n2)c(=O)[nH]1 [Example 607, 5-(8-((1S,2S)-2-(1-(2,2,2-trifluoroethyl)-3-(trifluoromethyl)-1H-indazol-6-yl)cyclopropyl)imidazo[1,2-b]pyridazin-6-yl)pyrimidine-2,4(1H,3H)-dione]	0.9 nM	0.23 nM
O=C1N(CC(F)(F)F)c2cc([C@H]3C[C@@H]3c3cc(-c4c[nH]c(=O)[nH]c4=O)nc4ccnn34)ccc2C12CC2 [Example 715, 5-(7-((1S,2S)-2-(2′-oxo-1′-(2,2,2-trifluoroethyl)spiro[cyclopropane-1,3′-indolin]-6′-yl)cyclopropyl)pyrazolo[1,5-a]pyrimidin-5-yl)pyrimidine-2,4(1H,3H)-dione]	1.42 nM	0.32 nM
COCC1(C)CCN(c2cc(-c3c[nH]c(=O)[nH]c3=O)nn3ccnc23)C1 (centres unmarked) [Example 572, 5-(8-(3-(methoxymethyl)-3-methylpyrrolidin-1-yl)imidazo[1,2-b]pyridazin-6-yl)pyrimidine-2,4(1H,3H)-dione]	25.3 nM	93.9 nM
N#Cc1ccc([C@H]2C[C@@H]2c2cc(-c3c[nH]c(=O)[nH]c3=O)nn3ccnc23)cc1C1CC1 [Example 563, 2-cyclopropyl-4-((1S,2S)-2-(6-(2,4-dioxo-1,2,3,4-tetrahydropyrimidin-5-yl)imidazo[1,2-b]pyridazin-8-yl)cyclopropyl)benzonitrile]	0.66 nM	10.6 nM
O=c1[nH]cc(-c2cc([C@H]3C[C@@H]3c3ccc4c(C(F)(F)F)nc(CC(F)(F)F)n4c3)c3nccn3n2)c(=O)[nH]1 (racemic) [Example 609, 5-(8-((1S,2S)-2-(3-(2,2,2-trifluoroethyl)-1-(trifluoromethyl)imidazo[1,5-a]pyridin-6-yl)cyclopropyl)imidazo[1,2-b]pyridazin-6-yl)pyrimidine-2,4(1H,3H)-dione]	2.36 nM	0.39 nM
Cc1cc([C@H]2C[C@@H]2c2cc(-c3c[nH]c(=O)[nH]c3=O)nn3ccnc23)ccc1C#N [Example 560, 4-((1S,2S)-2-(6-(2,4-dioxo-1,2,3,4-tetrahydropyrimidin-5-yl)imidazo[1,2-b]pyridazin-8-yl)cyclopropyl)-2-methylbenzonitrile]	0.85 nM	2.86 nM
O=c1[nH]cc(-c2cc([C@H]3C[C@@H]3c3ccc(C(F)F)cc3)n3nccc3n2)c(=O)[nH]1 [Example 215, 5-(7-((1S,2S)-2-(4-(difluoromethyl)phenyl)cyclopropyl)pyrazolo[1,5-a]pyrimidin-5-yl)pyrimidine-2,4(1H,3H)-dione]	1.41 nM	12.1 nM
O=c1[nH]cc(-c2cc([C@H]3C[C@@H]3c3ccc4cnc(CC(F)(F)F)n4c3)c3nccn3n2)c(=O)[nH]1 (racemic) [Example 605, 5-(8-((1S,2S)-2-(3-(2,2,2-trifluoroethyl)imidazo[1,5-a]pyridin-6-yl)cyclopropyl)imidazo[1,2-b]pyridazin-6-yl)pyrimidine-2,4(1H,3H)-dione]	1.26 nM	0.12 nM
CC1CN(c2cc(-c3c[nH]c(=O)[nH]c3=O)nn3ccnc23)CC1(F)F (centres unmarked) [Example 479, 5-(8-(3,3-difluoro-4-methylpyrrolidin-1-yl)imidazo[1,2-b]pyridazin-6-yl)pyrimidine-2,4(1H,3H)-dione]	2.6 nM	9.06 nM
CC1(C)C(=O)N(CC(F)(F)F)c2cc([C@H]3C[C@@H]3c3cc(-c4c[nH]c(=O)[nH]c4=O)nn4ccnc34)ccc21 [Example 703, 5-(8-((1S,2S)-2-(3,3-dimethyl-2-oxo-1-(2,2,2-trifluoroethyl)indolin-6-yl)cyclopropyl)imidazo[1,2-b]pyridazin-6-yl)pyrimidine-2,4(1H,3H)-dione]	1.24 nM	0.14 nM
O=c1[nH]cc(-c2cc([C@H]3C[C@@H]3c3ccc4nccc(OCC(F)(F)F)c4c3)c3nccn3n2)c(=O)[nH]1 [Example 709, 5-(8-((1S,2S)-2-(4-(2,2,2-trifluoroethoxy)quinolin-6-yl)cyclopropyl)imidazo[1,2-b]pyridazin-6-yl)pyrimidine-2,4(1H,3H)-dione]	1.24 nM	0.4 nM
CC(=O)NC1CN(c2cc(-c3c[nH]c(=O)[nH]c3=O)nn3ccnc23)CC1(F)F (centres unmarked) [Example 205, N-[1-[6-(2,4-dioxo-1H-pyrimidin-5-yl)imidazo[1,2-b]pyridazin-8-yl]-4,4-difluoro-pyrrolidin-3-yl]acetamide]	4.42 nM	16 nM

Reference: patent US20240043427A1 (Gilead Sciences, Inc., priority 2020, published 2024)
